As a reminder, the IC50 is the concentration at which inhibition is half-maximal. A lower IC50 goes with greater potency in that assay. A word on the EC50: it is the concentration that produces a half-maximal response. Lower therefore signals an effect from little substance. As usually defined, the inhibition is the drop in the measured response relative to a control, in per cent. A higher inhibition goes with a response far below the control.

These results are taken from ChEMBL document CHEMBL2028040, “Malaria Box”.

Series [1] has as its system Trypanosoma brucei rhodesiense. The experiment in a line: MMV: Inhibition of Trypanosoma brucei rhodesiense (STIB 900) (HAT in vitro). It counts as functional, organism-based.
Series [2] can be described thus: MMV: Cytotoxicity against human fibroblasts (MRC-5) cells. To be noted: MRC-5 cells (human fibroblasts).
Series [3] has as its system Leishmania infantum. The experiment in a line: MMV: Inhibition of Leishmania infantum (MHOM/MA/BE/67) in vitro. It counts as functional, organism-based.
Series [4] has as its system Plasmodium falciparum. The experiment in a line: MMV: Inhibition of Plasmodium falciparum 3D7 (EC50). Format: functional, organism-based.
The subject of series [5] is Plasmodium falciparum. The experiment in a line: MMV: Inhibition of Plasmodium falciparum 3D7 at 5uM compound concentration. Format: functional.
For series [6], the system named is Trypanosoma brucei brucei. The experiment in a line: MMV: Inhibition of Trypanosoma brucei brucei (Squib 427) (HAT in vitro). It counts as functional, organism-based.
For series [7], the system named is Trypanosoma cruzi. The experiment in a line: MMV: Inhibition of Trypanosoma cruzi (Tulahuen C4 LacZ) (Chagas in vitro). Format: functional, organism-based.
Series [8] concerns Plasmodium falciparum. The experiment in a line: MMV: Inhibition of Plasmodium falciparum K1 (EC50). Format: functional, organism-based.

As to `CCOC(=O)c1cn(CC)c2cc(N(C)CCc3ccc(OC)c(OC)c3)c(F)cc2c1=O`, the IC50 in series [1], in series [2], in series [3], in series [6] and in series [7] was greater than 32 µM in each case. The concentration for a half-maximal effect (EC50) in series [4] amounted to 0.205 µM; in series [8], 0.436 µM. The same compound gave an inhibition at 5 µM in series [5] of 99%.

For `O=C(NC1CCN(Cc2ccccc2)CC1)c1cc(C(=O)NC2CCN(Cc3ccccc3)CC2)cc(C(=O)NC2CCN(Cc3ccccc3)CC2)c1`, the IC50 in series [1] is 2.84 µM; in series [2], greater than 32 µM; in series [3], 4.06 µM; in series [6], 4.06 µM; in series [7], 25.1 µM. The EC50 stood at 0.646 µM in series [4] and 0.928 µM in series [8]. This compound also showed an inhibition at 5 µM in series [5] of 98%.

`CCCCCCc1cc(O)c2c3c(c(=O)oc2c1)CCC(C)C3` (configuration not stated): the IC50 was 4.21 µM in series [1]; greater than 32 µM in series [2]; greater than 32 µM in series [3]; 4.18 µM in series [6]; greater than 32 µM in series [7]. The figures for the concentration for a half-maximal effect (EC50) in series [4] and in series [8] were 0.534 µM and 0.467 µM, respectively. This compound also had an inhibition at 5 µM in series [5] of 96%.

`CC(=O)Nc1nnc(SCc2c(C)cc(C(C)(C)C)cc2C)s1`: the IC50 in series [1], in series [2], in series [3], in series [6] and in series [7] was greater than 32 µM each time. For the same compound, the EC50 in series [4] was 0.871 µM; in series [8], 0.843 µM. Also, the inhibition at 5 µM in series [5] stood at 96%.

As to `O=C(CCc1ccccc1)c1ccccc1OCC(O)CN1CCCCC1` (configuration not stated), the half-maximal inhibitory concentration (IC50) in series [1] was 4.7 µM; in series [2], greater than 32 µM; in series [3] it was 17.3 µM; in series [6], 16.1 µM; in series [7], 16.9 µM. Moreover, the results for the EC50 in series [4] and in series [8] were 0.676 µM and 0.182 µM, respectively. Moreover, the inhibition at 5 µM in series [5] was 97%.

Regarding `O=C(Nc1cccc(C2=NCCN2)c1)Nc1cccc(C2=NCCN2)c1` [IMIDOCARB], the half-inhibitory concentration (IC50) in series [1] is 0.265 µM; in series [2], greater than 32 µM; in series [3], greater than 32 µM; in series [6], 19.6 µM; in series [7], greater than 32 µM. Also, the EC50 in series [4] came out at 1.01 µM; in series [8], 1.38 µM. In series [5], testing at 5 µM gave an inhibition of 83%.

For `COc1ccc(C(=O)NC(c2ccc(Cl)cc2Cl)c2cc(Cl)c3cccnc3c2O)cc1` (configuration not stated), the half-maximal inhibitory concentration (IC50) was 4.09 µM in series [1]; 7.79 µM in series [2]; 4.76 µM in series [3]; 3.94 µM in series [6]; 3.85 µM in series [7]. The EC50 in series [4] came to 0.513 µM; in series [8], 0.525 µM. The same compound gave an inhibition at 5 µM in series [5] of 96%.

`O=C1c2ccccc2-c2nnc(-c3ccc(Br)cc3)cc21`: the IC50 in series [1], in series [2], in series [3], in series [6] and in series [7] was greater than 32 µM each time. For the same compound, the EC50 in series [4] came out at 1.07 µM; in series [8], 0.798 µM. Besides, in series [5], 5 µM produced 99% inhibition.

In the case of `Cc1ccccc1OCCSc1nc2ccc(NC(=O)c3cccs3)cc2s1`, the IC50 in series [1] is 2.77 µM; in series [2], greater than 32 µM; in series [3], 17.3 µM; in series [6] it was 3.94 µM; in series [7], 4.65 µM. Further, the 50% effective concentration (EC50) in series [4] is 0.697 µM; in series [8] it was 1.04 µM. Moreover, the inhibition at 5 µM in series [5] was determined as 96%.

Regarding `COc1ccc(C(C)=O)cc1N1C(=O)C2C(C1=O)C1(c3ccccc3)C(=O)C2(c2ccccc2)C(c2ccc(C)cc2)=C1c1ccc(C)cc1` (configuration not stated), the IC50 in series [1], in series [2], in series [3], in series [6] and in series [7] was greater than 32 µM each time. Also, the concentration giving a half-maximal response (EC50) in series [4] came out at 0.179 µM; in series [8], 0.224 µM. Further, the inhibition at 5 µM in series [5] came to 96%.

On to `COc1ccc(Br)cc1C1Nc2ccc3ccccc3c2C2=C1C(=O)CC(c1ccccc1)C2` (configuration not stated), for which the half-maximal inhibitory concentration (IC50) is 1.06 µM in series [1]; greater than 32 µM in series [2]; greater than 32 µM in series [3]; 4.06 µM in series [6]; 1.12 µM in series [7]. Moreover, the EC50 in series [4] was 0.18 µM; in series [8], 0.4 µM. For the same compound, the inhibition at 5 µM in series [5] was determined as 95%.

Consider `CC(C)(C)c1ccc(C2CC3=Nc4ccccc4N(C(=O)c4ccccc4Cl)C(c4ccc(F)cc4)C3=C(O)C2)cc1` (configuration not stated), for which the IC50 in series [1] is 1.11 µM; in series [2] it was greater than 32 µM; in series [3], 17.3 µM; in series [6], 4.25 µM; in series [7] it was greater than 32 µM. Moreover, the EC50 turned out to be 0.947 µM in series [4] and 0.824 µM in series [8]. In addition, the inhibition at 5 µM in series [5] came out at 96%.

On to `COc1cc(C(=O)ON=C(N)Cc2cccc3ccccc23)cc(OC)c1OC`, for which the half-inhibitory concentration (IC50) in series [1] is 1.15 µM; in series [2], 5.66 µM; in series [3], greater than 32 µM; in series [6], 4.09 µM; in series [7], 2.62 µM. The half-maximal effective concentration (EC50) stood at 0.782 µM in series [4] and 0.54 µM in series [8]. In series [5], this compound had an inhibition at 5 µM of 99%.

Regarding `COc1ccc(C2Sc3ccccc3N=C3C2=C(O)c2ccccc23)cc1` (configuration not stated), the IC50 was 3.54 µM in series [1]; greater than 32 µM in series [2]; 4.76 µM in series [3]; 4 µM in series [6]; 4.51 µM in series [7]. The values for the EC50 in series [4] and in series [8] were 0.845 µM and 1.93 µM, respectively. The compound also gave an inhibition at 5 µM in series [5] of 96%.

As for `CC(NCc1ccccc1)c1cc(Cl)ccc1O` (configuration not stated), the IC50 in series [1] was 16 µM; in series [2], greater than 32 µM; in series [3], greater than 32 µM; in series [6], greater than 32 µM; in series [7], greater than 32 µM. For the same compound, the results for the concentration giving a half-maximal response (EC50) in series [4] and in series [8] were 0.603 µM and 0.243 µM, respectively. This compound also displayed an inhibition at 5 µM in series [5] of 95%.

On to `CCOc1ccc(-c2nonc2NC(=O)c2cccc(C)c2)cc1OCC`, for which the concentration for half-maximal inhibition (IC50) in series [1], in series [2], in series [3], in series [6] and in series [7] was greater than 32 µM throughout. The EC50 in series [4] turned out to be 0.117 µM; in series [8] it was 0.127 µM. For the same compound, testing at 5 µM in series [5] gave an inhibition of 86%.

For `FC(F)(F)c1cccc(Nc2nc3ccccc3nc2Nc2cccc(C(F)(F)F)c2)c1`, the IC50 in series [1] was determined as 4 µM; in series [2] it was 9.31 µM; in series [3], 4.06 µM; in series [6], 3.78 µM; in series [7] it was 3.75 µM. Further, the EC50 in series [4] amounted to 0.313 µM; in series [8], 0.501 µM. The compound also had an inhibition at 5 µM in series [5] of 99%.

On to `Cc1cc(NCCN2CCCCC2)c2ccc3ccccc3c2n1`, for which the half-maximal inhibitory concentration (IC50) in series [1] was 1 µM; in series [2], 16.1 µM; in series [3] it was 0.841 µM; in series [6] it was 0.97 µM; in series [7] it was 3.27 µM. In addition, the EC50 worked out at 0.3 µM in series [4] and 0.569 µM in series [8]. Further, in series [5], the inhibition at 5 µM amounted to 99%.

`COc1ccc(-c2nc(NC(=O)CS(=O)(=O)c3ccc(F)cc3)sc2C)cc1`: the IC50 in series [1] is 16.1 µM; in series [2], greater than 32 µM; in series [3], greater than 32 µM; in series [6], 16 µM; in series [7] it was 16.8 µM. For the same compound, the concentration for a half-maximal effect (EC50) in series [4] was found to be 0.448 µM; in series [8], 1.28 µM. In series [5], this compound yielded an inhibition at 5 µM of 97%.
